According to US20120064175A1, “HSP90 Inhibitors for Treating Non-Small Cell Lung Cancer in Wild-Type EGFR and/or KRAS Patients” (Synta Pharmaceuticals Corp., priority 2010, published 2012):

What was measured:
FLT3 with Hsp90 = conditions: cited from earlier work
[1] = test system: leukemia cells that express either wild type FLT3 or FLT3-ITD mutations; conditions: Yao, et al. 2003; cited from earlier work
Kasumi-1 cells = conditions: acute myeloid leukemia cell line that harbors a mutation in c-Kit; cited from earlier work
[2] = test system: RERF-LC-AI human squamous non-small cell lung cancer cell line; assay: Nude mouse xenograft model with RERF-LC-AI human tumor cells; type: in vivo; conditions: RERF-LC-AI^IVP tumors, i.p., 5 days per week, 15 doses; heading only, no data given
Procedure: The human squamous non-small cell lung cancer cell line, RERF-LC-AI (RCB0444; S. Kyoizumi, et al., Cancer. Res. 45:3274-3281, 1985), was obtained from the Riken Cell Bank (Tsukuba, Ibaraki, Japan). The cell line was cultured in growth media prepared from 50% Dulbecco's Modified Eagle Medium (high glucose), 50% RPMI Media 1640, 10% fetal bovine serum (FBS), 1% 100×L-glutamine, 1% 100× penicillin-streptomycin, 1% 100× sodium pyruvate and 1% 100×MEM non-essential amino acids. FBS was obtained from American Type Culture Collection (Manassas, Va., USA) and all other reagents were obtained from Invitrogen Corp. (Carlsbad, Calif., USA). […]
The growth media was replaced every 2-3 days until the flask became 90% confluent, typically in 5-7 days. […] The supernatant was aspirated and the cell pellet was resuspended in 10 ml of growth media and the cell number determined using a hemocytometer. […]
Seven to eight week old, female Crl:CD-1-nuBR (nude) mice were obtained from Charles River Laboratories (Wilmington, Mass., USA) Animals were housed 4-5/cage in micro-isolators, with a 12 hr/12 hr light/dark cycle, acclimated for at least 1 week prior to use and fed normal laboratory chow ad libitum. […] Tumor volumes (V) were calculated by caliper measurement of the width (W), length (L) and thickness (T) of tumors using the following formula: V=0.5236×(L×W×T). […]

## C=CCNC1=C2C[C@@H](C)C[C@H](OC)[C@H](O)[C@@H](C)/C=C(\C)[C@H](OC(N)=O)[C@@H](OC)/C=C\C=C(/C)C(=O)NC(=CC1=O)C2=O [Compound 17AAG, 17-allylamino-17-demethoxygeldanamycin]
FLT3 with Hsp90
  Effect on the association of FLT3 with Hsp90: disrupt the association of FLT3 with Hsp90
[1]
  Growth of leukemia cells: inhibited
Kasumi-1 cells
  Apoptosis: induce apoptosis

## CCc1cc(-c2nnc(S)n2-c2ccc(O)c3c2ccn3C(C)C)c(O)cc1O [Compound 48, 3-(2,4-DIHYDROXY-5-ETHYL- PHENYL)-4-(1-ISOPROPYL-7- HYDROXY-INDOL-4-YL)-5- MERCAPTO-[1,2,4] TRIAZOLE]
[2]
  Anti-tumor activity against human tumor cells in a nude mouse xenograft model: Displays Anti-tumor Activity
